Key:
[1] = tested on: Mycobacterium tuberculosis Erdman (autoluminescent); experiment: Einf, fitted maximum growth inhibition of combination (fraction); higher = stronger maximal inhibition
Protocol: (§1)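 DiaMOND equipotent two-drug combination dose responses against autoluminescent M. tuberculosis Erdman in 8 in vitro models. Read-out is OD600, or luminescence for the intracellular and dormancy models, normalised to untreated wells. Hill-fit Einf, AUC25 and GRinf are potency metrics; FIC50 and FIC90 are Loewe-additivity fractional inhibitory concentrations, given as log2 (negative = synergy). Replicates are averaged.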

[2] = tested on: Mycobacterium tuberculosis Erdman (autoluminescent); experiment: FIC50 (Loewe) at 50% inhibition (log2); higher = more antagonistic
Protocol: as §1

[3] = tested on: Mycobacterium tuberculosis Erdman (autoluminescent); experiment: GRinf, maximum normalised growth rate inhibition (unitless (-1 to 1)); higher = less effect (negative = killing)
Protocol: as §1

[4] = tested on: Mycobacterium tuberculosis Erdman (autoluminescent); experiment: AUC25, normalised area under dose response up to IC25 (fraction (0-1)); higher = more potent at low dose
Protocol: as §1

[5] = tested on: Mycobacterium tuberculosis Erdman (autoluminescent); experiment: FIC90 (Loewe) at 90% inhibition (log2); higher = more antagonistic
Protocol: as §1

NNC(=O)c1ccncc1 [isoniazid] + CO[C@H]1/C=C/O[C@@]2(C)Oc3c(C)c(O)c4c(O)c(c(/C=N/N5CCN(C)CC5)c(O)c4c3C2=O)NC(=O)/C(C)=C\C=C\[C@H](C)[C@H](O)[C@@H](C)[C@@H](O)[C@@H](C)[C@H](OC(C)=O)[C@@H]1C [rifampicin]
Details | AUC25, [4] | Einf, [1] | FIC50, [2] | FIC90, [5] | GRinf, [3]
in vitro model: acidic pH 5.7, time point: constant (~7 days, model-specific) | 0.0799 | 0.91 | 0.156 | – | -0.381
in vitro model: acidic pH 5.7, time point: terminal (~4-5 doublings, model-specific) | 0.0614 | 0.99 | 0.263 | 0.0584 | -0.3
in vitro model: intracellular J774, time point: constant = terminal | – | 0.966 | – | -0.336 | -0.212

Details | AUC25, [4] | Einf, [1] | FIC50, [2] | FIC90, [5] | GRinf, [3]
in vitro model: butyrate, time point: constant (~7 days, model-specific) | 0.1 | 0.932 | 0.279 | 0.359 | -0.0416
in vitro model: butyrate, time point: terminal (~4-5 doublings, model-specific) | 0.0861 | 0.973 | 0.0238 | 0.0846 | -0.0152
in vitro model: cholesterol 0.05 mM, time point: constant (~7 days, model-specific) | 0.107 | 0.655 | 0.41 | – | 0.0341
in vitro model: cholesterol 0.05 mM, time point: terminal (~4-5 doublings, model-specific) | 0.0769 | 0.897 | 0.0977 | 0.49 | -0.0891
in vitro model: cholesterol-high 0.2 mM, time point: constant (~7 days, model-specific) | 0.0535 | 0.91 | -0.107 | – | -0.249
in vitro model: cholesterol-high 0.2 mM, time point: terminal (~4-5 doublings, model-specific) | 0.0593 | 1 | 0.355 | 0.101 | -0.696
in vitro model: dormancy (butyrate + nitrate, low O2), time point: constant (~7 days, model-specific) | 0.0607 | 0.931 | -0.181 | -1.07 | 0.104
in vitro model: dormancy (butyrate + nitrate, low O2), time point: terminal (~4-5 doublings, model-specific) | 0.0631 | 0.989 | -0.539 | -0.256 | -0.205
in vitro model: standard 7H9 glycerol, time point: constant = terminal | 0.0779 | 0.914 | 0.445 | -0.093 | 0.103
in vitro model: valerate, time point: constant (~7 days, model-specific) | 0.0388 | 0.866 | 0.511 | – | 0.0415
in vitro model: valerate, time point: terminal (~4-5 doublings, model-specific) | 0.0262 | 0.943 | 0.396 | 0.119 | 0.032

NNC(=O)c1ccncc1 [isoniazid] + COc1c(N2C[C@@H]3CCCN[C@@H]3C2)c(F)cc2c(=O)c(C(=O)O)cn(C3CC3)c12 [moxifloxacin]
Details | AUC25, [4] | Einf, [1] | FIC50, [2] | FIC90, [5] | GRinf, [3]
in vitro model: acidic pH 5.7, time point: constant (~7 days, model-specific) | 0.108 | 0.704 | 0.476 | – | -0.263
in vitro model: acidic pH 5.7, time point: terminal (~4-5 doublings, model-specific) | 0.0673 | 0.923 | 0.361 | 0.444 | -0.118
in vitro model: intracellular J774, time point: constant = terminal | – | 0.993 | – | 0.465 | -0.405

Details | AUC25, [4] | Einf, [1] | FIC50, [2] | FIC90, [5] | GRinf, [3]
in vitro model: butyrate, time point: constant (~7 days, model-specific) | 0.0638 | 0.926 | 0.0921 | 0.134 | -0.0481
in vitro model: butyrate, time point: terminal (~4-5 doublings, model-specific) | 0.0457 | 0.969 | 0.0505 | -0.0232 | -0.0694
in vitro model: cholesterol 0.05 mM, time point: constant (~7 days, model-specific) | 0.121 | 0.756 | 0.0749 | – | -0.309
in vitro model: cholesterol 0.05 mM, time point: terminal (~4-5 doublings, model-specific) | 0.096 | 0.962 | 0.0269 | 0.468 | -0.301
in vitro model: cholesterol-high 0.2 mM, time point: constant (~7 days, model-specific) | 0.079 | 0.953 | 0.049 | 0.277 | -0.524
in vitro model: cholesterol-high 0.2 mM, time point: terminal (~4-5 doublings, model-specific) | 0.057 | 0.995 | 0.314 | 0.00349 | -0.639
in vitro model: dormancy (butyrate + nitrate, low O2), time point: constant (~7 days, model-specific) | 0.076 | 0.91 | 0.000113 | -0.385 | 0.143
in vitro model: dormancy (butyrate + nitrate, low O2), time point: terminal (~4-5 doublings, model-specific) | 0.0785 | 0.985 | 0.0985 | 0.553 | -0.158
in vitro model: standard 7H9 glycerol, time point: constant = terminal | 0.0762 | 0.981 | 0.317 | 0.332 | -0.218
in vitro model: valerate, time point: constant (~7 days, model-specific) | 0.0691 | 0.863 | 0.215 | – | 0.0468
in vitro model: valerate, time point: terminal (~4-5 doublings, model-specific) | 0.0467 | 0.94 | 0.279 | 0.294 | 0.0344

NNC(=O)c1ccncc1 [isoniazid] + NC(=O)c1cnccn1 [pyrazinamide]
Details | AUC25, [4] | Einf, [1] | FIC50, [2] | FIC90, [5] | GRinf, [3]
in vitro model: acidic pH 5.7, time point: constant (~7 days, model-specific) | 0.097 | 0.857 | -0.176 | – | -0.422
in vitro model: acidic pH 5.7, time point: terminal (~4-5 doublings, model-specific) | 0.0846 | 0.977 | 0.19 | -0.784 | -0.338
in vitro model: intracellular J774, time point: constant = terminal | – | 0.964 | – | 0.267 | -0.218

Details | AUC25, [4] | Einf, [1] | FIC50, [2] | FIC90, [5] | GRinf, [3]
in vitro model: butyrate, time point: constant (~7 days, model-specific) | 0.0844 | 0.931 | -0.141 | 0.439 | 0.0223
in vitro model: butyrate, time point: terminal (~4-5 doublings, model-specific) | 0.053 | 0.954 | -0.11 | -0.0985 | 0.0459
in vitro model: cholesterol 0.05 mM, time point: constant (~7 days, model-specific) | 0.112 | 0.758 | – | – | -0.252
in vitro model: cholesterol 0.05 mM, time point: terminal (~4-5 doublings, model-specific) | 0.119 | 0.951 | -0.117 | – | -0.372
in vitro model: cholesterol-high 0.2 mM, time point: constant (~7 days, model-specific) | 0.0915 | 0.908 | 0.321 | – | -0.322
in vitro model: cholesterol-high 0.2 mM, time point: terminal (~4-5 doublings, model-specific) | 0.0717 | 0.995 | 0.538 | 0.4 | -0.664
in vitro model: dormancy (butyrate + nitrate, low O2), time point: constant (~7 days, model-specific) | 0.0844 | 0.897 | -0.543 | -0.165 | 0.244
in vitro model: dormancy (butyrate + nitrate, low O2), time point: terminal (~4-5 doublings, model-specific) | 0.0579 | 0.984 | -0.16 | -0.412 | -0.119
in vitro model: standard 7H9 glycerol, time point: constant = terminal | 0.0332 | 0.861 | -0.124 | – | 0.248
in vitro model: valerate, time point: constant (~7 days, model-specific) | 0.0637 | 0.78 | -0.102 | – | 0.208
in vitro model: valerate, time point: terminal (~4-5 doublings, model-specific) | 0.0551 | 0.839 | 0.196 | 0.67 | 0.173

— the supplement of paper PMC8617591
